Reference: ChEMBL document CHEMBL1201862, “PubChem BioAssay data set” (2004)
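Cultured in 96-well plates, cells were exposed to test compound for 48 hours across five concentrations. Here, GI50 denotes the concentration required for 50% inhibition of growth.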 The source made the active and inactive calls. Cut-off read from the data, not from the text of the source: active = GI50 up to about 1.1 µM and inactive = higher.

Assays:
Experiment in all cases: growth of human tumour cells (NCI), 48 h
[1] = test system: NCI-H23
[2] = test system: HCC 2998
[3] = test system: ACHN
[4] = test system: K562
[5] = test system: SNB-75
[6] = test system: IGROV-1
[7] = test system: SK-MEL-5
[8] = test system: A549
[9] = test system: KM12
[10] = test system: MOLT-4
[11] = test system: CCRF-CEM
[12] = test system: MCF7
[13] = test system: BT-549
[14] = test system: NCI/ADR-RES
[15] = test system: 786-0
[16] = test system: COLO 205
[17] = test system: Malme-3M
[18] = test system: T47D
[19] = test system: SK-MEL-2

Compound	GI50 [1]	GI50 [2]	GI50 [3]	GI50 [4]	GI50 [5]	GI50 [6]	GI50 [7]	GI50 [8]	GI50 [9]	GI50 [10]	GI50 [11]	GI50 [12]	GI50 [13]	GI50 [14]	GI50 [15]	GI50 [16]	GI50 [17]	GI50 [18]	GI50 [19]
CC1C2=C(O)CC(C)(C)CC2=NC2=C1C(=O)CC(C)(C)C2 (stereo not given)	> 100 µM (inactive)	> 100 µM (inactive)	> 100 µM (inactive)	91.8 µM (inactive)	83 µM (inactive)	> 100 µM (inactive)	> 100 µM (inactive)	> 100 µM (inactive)	> 100 µM (inactive)	> 100 µM (inactive)	> 100 µM (inactive)	> 100 µM (inactive)	> 100 µM (inactive)	> 100 µM (inactive)	> 100 µM (inactive)				
CC(=O)N(O)Cc1ccccc1	> 100 µM (inactive)	> 100 µM (inactive)	> 100 µM (inactive)	> 100 µM (inactive)	67.9 µM (inactive)	> 100 µM (inactive)	> 100 µM (inactive)	> 100 µM (inactive)	> 100 µM (inactive)	> 100 µM (inactive)	> 100 µM (inactive)				> 100 µM (inactive)	> 100 µM (inactive)	> 100 µM (inactive)		
COc1cc(/C=C/c2ccnc3ccccc23)cc(OC)c1OC	1.66 µM (inactive)	8.47 µM (inactive)	7.23 µM (inactive)			3.66 µM (inactive)	2.45 µM (inactive)	4.52 µM (inactive)	3.23 µM (inactive)	2.92 µM (inactive)	2.09 µM (inactive)	5.22 µM (inactive)		2.46 µM (inactive)	8.97 µM (inactive)	1.88 µM (inactive)	2.98 µM (inactive)	3.81 µM (inactive)	3.78 µM (inactive)
CCOC(=O)CSc1[nH]c2nc(C)nc(Cl)c2c1C#N	> 10 µM (inactive)	> 10 µM (inactive)		> 10 µM (inactive)	> 10 µM (inactive)	> 10 µM (inactive)	> 10 µM (inactive)	> 10 µM (inactive)	> 10 µM (inactive)	> 10 µM (inactive)	> 10 µM (inactive)	> 10 µM (inactive)			> 10 µM (inactive)	> 10 µM (inactive)	> 10 µM (inactive)	> 10 µM (inactive)	
O=[N+]([O-])c1ccc(Cl)c2c([N+](=O)[O-])cccc12	9.27 µM (inactive)	> 10 µM (inactive)		4.02 µM (inactive)	5.38 µM (inactive)	8.02 µM (inactive)	2.33 µM (inactive)	> 10 µM (inactive)	3.2 µM (inactive)	4.9 µM (inactive)	2.36 µM (inactive)	4.43 µM (inactive)			3.14 µM (inactive)	4.57 µM (inactive)	5.82 µM (inactive)	4.22 µM (inactive)	8.34 µM (inactive)
CC1(C)S[C@@H]2[C@H](N3C(=O)c4ccccc4C3=O)CN2[C@H]1NC(=O)N[C@@H]1N2C[C@@H](N3C(=O)c4ccccc4C3=O)[C@H]2SC1(C)C	> 100 µM (inactive)	> 100 µM (inactive)	> 100 µM (inactive)	> 100 µM (inactive)	58.2 µM (inactive)	> 100 µM (inactive)	> 100 µM (inactive)	73.3 µM (inactive)	> 100 µM (inactive)	> 100 µM (inactive)	> 100 µM (inactive)	> 100 µM (inactive)		> 100 µM (inactive)	54.5 µM (inactive)	> 100 µM (inactive)	> 100 µM (inactive)	> 100 µM (inactive)	> 100 µM (inactive)
CC(C)C1OC(N)=C(C#N)C1(C#N)C#N (stereo not given)	33.3 µM (inactive)	24.5 µM (inactive)	36.9 µM (inactive)	8.49 µM (inactive)	33.8 µM (inactive)	51.4 µM (inactive)	33.3 µM (inactive)	> 100 µM (inactive)	> 100 µM (inactive)		10.9 µM (inactive)	69.7 µM (inactive)		58.1 µM (inactive)	29.4 µM (inactive)	18.2 µM (inactive)	> 100 µM (inactive)	67.3 µM (inactive)	> 100 µM (inactive)
Cc1cc(-c2ccc(Cl)cc2)c(C#N)c(=S)n1C1OC(CO)C(O)C(O)C1O (stereo not given)	> 100 µM (inactive)	> 100 µM (inactive)	> 100 µM (inactive)		20.1 µM (inactive)	> 100 µM (inactive)	> 100 µM (inactive)	> 100 µM (inactive)	> 100 µM (inactive)	> 100 µM (inactive)	> 100 µM (inactive)	> 100 µM (inactive)		> 100 µM (inactive)	> 100 µM (inactive)	> 100 µM (inactive)	> 100 µM (inactive)	99.8 µM (inactive)	> 100 µM (inactive)
CN(C)CCNC(=O)c1cccc2c(NC(CCCNC(=N)N)C(=O)O)c3ccccc3nc12 (stereo not given)	5.53 µM (inactive)		2.79 µM (inactive)	5.68 µM (inactive)	8.83 µM (inactive)	4.59 µM (inactive)	6.05 µM (inactive)	4.8 µM (inactive)	7.26 µM (inactive)	3.89 µM (inactive)	15.3 µM (inactive)	5.27 µM (inactive)		3.75 µM (inactive)	7.52 µM (inactive)	6.22 µM (inactive)	3.86 µM (inactive)		13.8 µM (inactive)
Clc1ccccc1/C=C\C1(c2ccccc2)OCCO1	10.2 µM (inactive)	17.5 µM (inactive)	17.3 µM (inactive)	16.7 µM (inactive)	19 µM (inactive)	14.2 µM (inactive)	19.8 µM (inactive)	> 100 µM (inactive)	11 µM (inactive)	15.9 µM (inactive)	19.7 µM (inactive)	2.77 µM (inactive)		16.4 µM (inactive)	16.5 µM (inactive)	21.3 µM (inactive)		26.9 µM (inactive)	
CN1N=C(c2ccncc2)OC1c1ccccc1F (stereo not given)	> 100 µM (inactive)	> 100 µM (inactive)	> 100 µM (inactive)	> 100 µM (inactive)		> 100 µM (inactive)	> 100 µM (inactive)	> 100 µM (inactive)	> 100 µM (inactive)	> 100 µM (inactive)	> 100 µM (inactive)			> 100 µM (inactive)	> 100 µM (inactive)	> 100 µM (inactive)		51.8 µM (inactive)	> 100 µM (inactive)
COc1ccc(N(CN2C(=O)CCC2C(=O)O)C(C)=O)cc1 (stereo not given)	> 100 µM (inactive)	> 100 µM (inactive)	> 100 µM (inactive)	> 100 µM (inactive)	> 100 µM (inactive)		> 100 µM (inactive)	> 100 µM (inactive)	> 100 µM (inactive)	65.5 µM (inactive)	> 100 µM (inactive)	> 100 µM (inactive)		> 100 µM (inactive)	> 100 µM (inactive)	> 100 µM (inactive)	> 100 µM (inactive)	> 100 µM (inactive)	> 100 µM (inactive)
O=C1CC(c2ccc(Cl)cc2)C2(C(=O)NC(=S)NC2=O)C(c2ccc(Cl)cc2)C1 (stereo not given)	18.8 µM (inactive)	25.8 µM (inactive)	36.2 µM (inactive)	30.5 µM (inactive)	15.1 µM (inactive)		17 µM (inactive)	26.9 µM (inactive)	18.5 µM (inactive)	25.5 µM (inactive)	24.2 µM (inactive)	17.3 µM (inactive)		20.8 µM (inactive)	36.5 µM (inactive)	16.8 µM (inactive)	21.4 µM (inactive)	23.7 µM (inactive)	17.3 µM (inactive)
COc1ccc(/C=N/CCC/N=C/c2ccc(OC)cc2O)c(O)c1	> 100 µM (inactive)		48.6 µM (inactive)	69 µM (inactive)	13.9 µM (inactive)	43.4 µM (inactive)		> 100 µM (inactive)	47.4 µM (inactive)	49.1 µM (inactive)	29.6 µM (inactive)	55.7 µM (inactive)	48.9 µM (inactive)		76.6 µM (inactive)		23.8 µM (inactive)		34.8 µM (inactive)
COc1cccc([C@@H]2C/C(=N\NC(=O)C(=O)N[C@@H](C)c3ccccc3)c3cc4c(cc3N2)OCO4)c1		50.9 µM (inactive)	> 100 µM (inactive)	13.2 µM (inactive)	22.5 µM (inactive)		3.06 µM (inactive)	43.9 µM (inactive)	6.89 µM (inactive)	21 µM (inactive)	28.1 µM (inactive)	8.32 µM (inactive)		13.9 µM (inactive)	82 µM (inactive)	25.5 µM (inactive)		> 100 µM (inactive)	85.9 µM (inactive)
COC(=O)C1c2cc3c(c(O)c2CCC1(C)O)C(=O)c1c(O)cc2c(c1C3=O)OC1OC2(C)C(O)C(N(C)C)C1O (stereo not given)	0.562 µM (active)		0.172 µM (active)	0.223 µM (active)	0.198 µM (active)	1.02 µM (active)	0.385 µM (active)	0.186 µM (active)	0.345 µM (active)	0.121 µM (active)		0.8 µM (active)		1.61 µM (inactive)	1.03 µM (active)	0.36 µM (active)	0.162 µM (active)	0.274 µM (active)	4.76 µM (inactive)
COc1ccccc1N1CCN(Cn2c(=O)oc3cccnc32)CC1	> 100 µM (inactive)	> 100 µM (inactive)	> 100 µM (inactive)	> 100 µM (inactive)	30 µM (inactive)	> 100 µM (inactive)	> 100 µM (inactive)	> 100 µM (inactive)		> 100 µM (inactive)	66.7 µM (inactive)	> 100 µM (inactive)		> 100 µM (inactive)	> 100 µM (inactive)		> 100 µM (inactive)	> 100 µM (inactive)	> 100 µM (inactive)
